From patent US20020035061A1, “COMPOSITIONS AND METHODS FOR TREATING INFECTIONS USING CATIONIC PEPTIDES ALONE OR IN COMBINATION WITH ANTIBIOTICS” (priority 1996, published 2002)
Where two headings read alike, the source gives them in different places.

Legend:
Format in all cases: cell-based
[1] = system: S. aureus
[2] = system: P. aeruginosa
[3] = system: E. coli
[4] = system: E. cloacae
[5] = system: S. maltophilia
[6] = system: S. marcescens
[7] = system: microorganisms with acquired resistance; assay: microbe, parasite or virus in culture
[8] = system: S. epidermidis
[9] = system: A. calcoaceticus
[10] = system: E. faecalis
[11] = system: K. pneumoniae
[12] = system: inherently resistant microorganisms; assay: microbe, parasite or virus in culture
[13] = system: bacterial isolates; assay: microbe, parasite or virus in culture
[14] = peptide + Amikacin, P. aeruginosa PA022
[15] = peptide + Gentamicin, A. baumannii ABI001
[16] = peptide + Gentamicin, A. baumannii ABI002
[17] = peptide + Gentamicin, A. calcoaceticus AC001
[18] = peptide + Gentamicin, P. aeruginosa PA041
[19] = peptide + Gentamicin, S. maltophilia SMA019
[20] = peptide + Ceftriaxone, A. baumannii ABI005
[21] = peptide + Ceftriaxone, B. cepacia BC003
[22] = peptide + Ceftriaxone, E. cloacae ECL014
[23] = peptide + Ceftriaxone, E. cloacae ECL015

ILRWPWWPWRRKIMILKKAGS [MBI 11B16CN]
0.16: FIC ([7]; peptide + Gentamicin, S. maltophilia SMA017)
1 mg/L: Gentamicin MIC + Peptide ([7]; A. calcoaceticus AC001) | Gentamicin MIC + Peptide ([13]; A. calcoaceticus AC001) | Gentamicin MIC + Peptide ([13]; S. aureus SA014 MRSA)
0.25: FIC [7, 17] | FIC ([12]; peptide + Amikacin, A. baumannii) | FIC ([13]; peptide + Amikacin, P. aeruginosa PA037) | FIC [13, 17]
0.56: FIC ([7]; peptide + Gentamicin, P. aeruginosa PA023)
8 mg/L: Amikacin MIC + Peptide ([7]; P. aeruginosa PA022) | Peptide MIC Alone ([12]; S. aureus MRSA, Amikacin section) | Peptide MIC Alone ([12]; S. aureus MRSA, Gentamicin section) | Peptide MIC Alone ([13]; 1. Amikacin, E. faecalis EFS008) | Peptide MIC Alone ([13]; 4. Gentamicin, S. aureus SA014 MRSA) | Peptide MIC + Amikacin ([13]; A. baumannii ABI003) | Amikacin MIC + Peptide ([13]; E. faecalis EFS008) | Amikacin MIC + Peptide ([13]; P. aeruginosa PA022) | Gentamicin MIC + Peptide ([13]; P. aeruginosa PA022) | Peptide MIC + Gentamicin ([13]; P. aeruginosa PA022) | Amikacin MIC + Peptide ([13]; S. maltophilia SMA018) | Peptide MIC + Amikacin ([13]; S. maltophilia SMA018) | Gentamicin MIC + Peptide ([13]; S. maltophilia SMA019) | Peptide MIC + Gentamicin ([13]; S. maltophilia SMA019) | Amikacin MIC + Peptide ([13]; S. maltophilia SMA022)
0.51: FIC [7, 19]
2 mg/L: MIC ([1]; S. aureus strain SA093) | Gentamicin MIC + Peptide ([7]; A. baumannii ABI002) | Gentamicin MIC + Peptide ([7]; P. aeruginosa PA041) | Gentamicin MIC + Peptide ([7]; S. maltophilia SMA017) | MIC ([10]; E. faecalis strain EFS001) | Gentamicin MIC + Peptide ([13]; A. baumannii ABI002) | Amikacin MIC + Peptide ([13]; P. aeruginosa PA037) | Gentamicin MIC + Peptide ([13]; P. aeruginosa PA041)
16 mg/L: MIC ([3]; E. coli strain ECO005) | Peptide MIC Alone ([7]; A. baumannii ABI001, Gentamicin section) | Peptide MIC Alone ([7]; A. baumannii ABI002, Gentamicin section) | Peptide MIC + Amikacin ([7]; P. aeruginosa PA022) | Peptide MIC + Gentamicin ([7]; P. aeruginosa PA023) | Peptide MIC + Gentamicin ([7]; P. aeruginosa PA041) | Peptide MIC + Gentamicin ([7]; S. maltophilia SMA017) | Peptide MIC + Gentamicin ([7]; S. maltophilia SMA019) | MIC ([11]; K. pneumoniae strain KP001) | Peptide MIC Alone ([13]; 1. Amikacin, A. baumannii ABI003) | Peptide MIC Alone ([13]; 4. Gentamicin, A. baumannii ABI001) | Peptide MIC Alone ([13]; 4. Gentamicin, A. baumannii ABI002) | Peptide MIC + Amikacin ([13]; A. baumannii ABI001) | Peptide MIC + Amikacin ([13]; P. aeruginosa PA022) | Peptide MIC + Gentamicin ([13]; P. aeruginosa PA041) | Peptide MIC + Gentamicin ([13]; S. maltophilia SMA016) | Peptide MIC + Amikacin ([13]; S. maltophilia SMA022)
0.125 mg/L: Amikacin MIC + Peptide ([13]; A. baumannii ABI001)
32 mg/L: MIC ([5]; S. maltophilia strain SMA002) | Peptide MIC Alone ([7]; A. calcoaceticus AC001, Gentamicin section) | Peptide MIC Alone ([7]; S. maltophilia SMA019, Gentamicin section) | Peptide MIC Alone ([12]; A. baumannii, Amikacin section) | Peptide MIC Alone ([13]; 1. Amikacin, A. baumannii ABI001) | Peptide MIC Alone ([13]; 1. Amikacin, S. maltophilia SMA018) | Peptide MIC Alone ([13]; 4. Gentamicin, A. calcoaceticus AC001) | Peptide MIC Alone ([13]; 4. Gentamicin, S. maltophilia SMA019) | Peptide MIC + Amikacin ([13]; P. aeruginosa PA037)
0.38: FIC [7, 14] | FIC [13, 14] | FIC ([13]; peptide + Gentamicin, E. faecalis EFS008) | FIC ([13]; peptide + Gentamicin, P. aeruginosa PA022) | FIC [13, 19]
64 mg/L: Peptide MIC Alone ([7]; P. aeruginosa PA022, Amikacin section) | Peptide MIC Alone ([13]; 1. Amikacin, P. aeruginosa PA022) | Peptide MIC Alone ([13]; 4. Gentamicin, P. aeruginosa PA022) | Gentamicin MIC + Peptide ([13]; E. faecalis EFS008) | Gentamicin MIC + Peptide ([13]; S. maltophilia SMA016)
0.09: FIC ([13]; peptide + Amikacin, S. maltophilia SMA022)
0.31: FIC [7, 15] | FIC [7, 16] | FIC [7, 18] | FIC ([13]; peptide + Amikacin, S. maltophilia SMA018) | FIC [13, 15] | FIC [13, 16] | FIC [13, 18] | FIC ([13]; peptide + Gentamicin, S. maltophilia SMA016)
4 mg/L: Gentamicin MIC + Peptide ([7]; A. baumannii ABI001) | Peptide MIC + Gentamicin ([7]; A. baumannii ABI001) | Peptide MIC + Gentamicin ([7]; A. baumannii ABI002) | Peptide MIC + Gentamicin ([7]; A. calcoaceticus AC001) | Gentamicin MIC + Peptide ([7]; P. aeruginosa PA023) | MIC ([8]; S. epidermidis strain SE010) | MIC ([9]; A. calcoaceticus strain AC002) | Peptide MIC + Amikacin ([12]; A. baumannii) | Peptide MIC + Amikacin ([12]; S. aureus MRSA) | Peptide MIC + Gentamicin ([12]; S. aureus MRSA) | Peptide MIC Alone ([13]; 4. Gentamicin, E. faecalis EFS008) | Gentamicin MIC + Peptide ([13]; A. baumannii ABI001) | Peptide MIC + Gentamicin ([13]; A. baumannii ABI001) | Peptide MIC + Gentamicin ([13]; A. baumannii ABI002) | Peptide MIC + Gentamicin ([13]; A. calcoaceticus AC001) | Peptide MIC + Gentamicin ([13]; S. aureus SA014 MRSA)
>128 mg/L: MIC ([2]; P. aeruginosa strain PA004) | MIC ([4]; E. cloacae strain ECL007) | MIC ([6]; S. marcescens strain SMS003) | Peptide MIC Alone ([7]; P. aeruginosa PA023, Gentamicin section) | Peptide MIC Alone ([7]; P. aeruginosa PA041, Gentamicin section) | Peptide MIC Alone ([13]; 1. Amikacin, P. aeruginosa PA037) | Peptide MIC Alone ([13]; 1. Amikacin, S. maltophilia SMA022) | Peptide MIC Alone ([13]; 4. Gentamicin, P. aeruginosa PA041) | Peptide MIC Alone ([13]; 4. Gentamicin, S. maltophilia SMA016)
0.5 mg/L: Gentamicin MIC + Peptide ([7]; S. maltophilia SMA019) | Amikacin MIC + Peptide ([13]; A. baumannii ABI003) | Peptide MIC + Gentamicin ([13]; E. faecalis EFS008)
128 mg/L: Peptide MIC Alone ([7]; S. maltophilia SMA017, Gentamicin section)
0.28: FIC ([13]; peptide + Amikacin, E. faecalis EFS008)
0.53: FIC ([12]; peptide + Gentamicin, S. aureus MRSA) | FIC ([13]; peptide + Amikacin, A. baumannii ABI003) | FIC ([13]; peptide + Gentamicin, S. aureus SA014 MRSA)
0.50: FIC ([13]; peptide + Amikacin, A. baumannii ABI001)
0.25 mg/L: Peptide MIC + Amikacin ([13]; E. faecalis EFS008)

WRWWKPKWRWPKW [MBI 11J02CN]
0.75: FIC ([7]; peptide + Ceftriaxone, A. lwoffii ALW007)
4 mg/L: MIC ([3]; E. coli ECO005) | Ceftriaxone MIC + Peptide ([7]; A. lwoffii ALW007) | Peptide MIC Alone ([7]; A. lwoffii ALW007, Ceftriaxone section) | MIC ([9]; A. calcoaceticus AC002) | MIC ([10]; E. faecalis EFS001) | MIC ([11]; K. pneumoniae KP001) | Peptide MIC Alone ([13]; 2. Ceftriaxone, S. epidermidis SE012) | Peptide MIC Alone ([13]; 2. Ceftriaxone, S. epidermidis SE073) | Ceftriaxone MIC + Peptide ([13]; B. cepacia BC003)
64 mg/L: MIC ([4]; E. cloacae ECL007) | Peptide MIC Alone ([12]; P. aeruginosa, Ceftriaxone section) | Peptide MIC Alone ([13]; 2. Ceftriaxone, P. aeruginosa PA008) | Peptide MIC Alone ([13]; 2. Ceftriaxone, P. aeruginosa PA039) | Peptide MIC + Ceftriaxone ([13]; B. cepacia BC003)
0.63: FIC [7, 21]
>128 mg/L: MIC ([6]; S. marcescens SMS003) | Peptide MIC Alone ([7]; B. cepacia BC003, Ceftriaxone section) | Peptide MIC Alone ([13]; 2. Ceftriaxone, B. cepacia BC003)
0.50: FIC [7, 22] | FIC [13, 21] | FIC [13, 23] | FIC ([13]; peptide + Ceftriaxone, P. aeruginosa PA008) | FIC ([13]; peptide + Ceftriaxone, P. aeruginosa PA039) | FIC ([13]; peptide + Ceftriaxone, S. epidermidis SE012)
0.56: FIC [7, 20] | FIC [13, 20]
0.52: FIC [7, 23] | FIC ([13]; peptide + Ceftriaxone, S. aureus SA025 MRSA)
0.125 mg/L: Ceftriaxone MIC + Peptide ([13]; P. aeruginosa PA008) | Ceftriaxone MIC + Peptide ([13]; S. aureus SA025 MRSA)
16 mg/L: Peptide MIC + Ceftriaxone ([7]; E. cloacae ECL014) | Peptide MIC + Ceftriaxone ([7]; E. cloacae ECL015) | MIC ([10]; E. faecalis EFS008) | Ceftriaxone MIC + Peptide ([13]; E. cloacae ECL014) | Ceftriaxone MIC + Peptide ([13]; E. cloacae ECL015) | Ceftriaxone MIC + Peptide ([13]; P. aeruginosa PA039) | Peptide MIC + Ceftriaxone ([13]; P. aeruginosa PA039) | Ceftriaxone MIC + Peptide ([13]; S. epidermidis SE012) | Ceftriaxone MIC + Peptide ([13]; S. epidermidis SE073)
0.38: FIC [13, 22] | FIC ([13]; peptide + Ceftriaxone, S. epidermidis SE073)
8 mg/L: MIC ([5]; S. maltophilia SMA002) | Ceftriaxone MIC + Peptide ([7]; A. baumannii ABI005) | Peptide MIC Alone ([7]; A. baumannii ABI005, Ceftriaxone section) | Ceftriaxone MIC + Peptide ([7]; B. cepacia BC003) | Peptide MIC Alone ([13]; 2. Ceftriaxone, A. baumannii ABI005) | Ceftriaxone MIC + Peptide ([13]; A. baumannii ABI005) | Peptide MIC + Ceftriaxone ([13]; E. cloacae ECL014) | Peptide MIC + Ceftriaxone ([13]; E. cloacae ECL015)
1 mg/L: MIC ([1]; S. aureus SA093) | Ceftriaxone MIC + Peptide ([7]; E. cloacae ECL015) | Peptide MIC + Ceftriaxone ([13]; S. aureus SA025 MRSA) | Peptide MIC + Ceftriaxone ([13]; S. epidermidis SE012) | Peptide MIC + Ceftriaxone ([13]; S. epidermidis SE073)
32 mg/L: MIC ([2]; P. aeruginosa PA004) | Peptide MIC + Ceftriaxone ([7]; B. cepacia BC003) | Peptide MIC Alone ([7]; E. cloacae ECL014, Ceftriaxone section) | Peptide MIC Alone ([7]; E. cloacae ECL015, Ceftriaxone section) | Peptide MIC + Ceftriaxone ([12]; P. aeruginosa) | Peptide MIC Alone ([13]; 2. Ceftriaxone, E. cloacae ECL014) | Peptide MIC Alone ([13]; 2. Ceftriaxone, E. cloacae ECL015) | Peptide MIC + Ceftriaxone ([13]; P. aeruginosa PA008)
0.25 mg/L: Ceftriaxone MIC + Peptide ([7]; E. cloacae ECL014)
0.5 mg/L: Peptide MIC + Ceftriaxone ([7]; A. baumannii ABI005) | Peptide MIC + Ceftriaxone ([13]; A. baumannii ABI005)
2 mg/L: MIC ([1]; S. aureus SA014) | Peptide MIC + Ceftriaxone ([7]; A. lwoffii ALW007) | MIC ([8]; S. epidermidis SE010) | Peptide MIC Alone ([13]; 2. Ceftriaxone, S. aureus SA025 MRSA)
